# Measured values as given in patent US20260152799A1, “TUMOUR STRATIFICATION FOR RESPONSIVENESS TO AN IMMUNE CHECKPOINT INHIBITOR” (MEMORIAL SLOAN-KETTERING CANCER CENTER, priority 2022, published 2026).
# Assays:
# PD-L1 [1] = target: T1, PD-L1 (Homo sapiens, UniProt Q9NZQ7); conditions: in vitro; cited from earlier work
# PD-L1 [2] = target: T1, PD-L1; conditions: xenograft model, T-cell dependent mechanism; cited from earlier work
# metastatic melanoma [3] = assay: Riaz et al clinical cohort: response to nivolumab by tumour mtDNA mutation status; type: in vivo, humans
# Procedure: A—Stratification of a metastatic melanoma patient cohort by mtDNA status. […] P-values were determined using one-way ANOVA test with Sidak multiple comparisons test (C,F), one-tailed student's t-test (I) or chi-squared test (H) were applied. Error bars indicate SD. Measure of centrality is mean.
# The inventors then assessed whether this would be associated with clinical outcome.
# Aligned reads for ChrM for patients' tumour and normal samples were acquired and processed according to previously described pipelines which are now publicly available (see e.g. Gorelick et al., Nature Metabolism 2021). Mutation calls and calculated heteroplasmy were used to assign patients to mtDNA wildtype, <50% VAF or >50% VAF groups.
# metastatic melanoma [4] = conditions: of the 15 responders; cited from earlier work
# T1 sequence (Q9NZQ7 19-290): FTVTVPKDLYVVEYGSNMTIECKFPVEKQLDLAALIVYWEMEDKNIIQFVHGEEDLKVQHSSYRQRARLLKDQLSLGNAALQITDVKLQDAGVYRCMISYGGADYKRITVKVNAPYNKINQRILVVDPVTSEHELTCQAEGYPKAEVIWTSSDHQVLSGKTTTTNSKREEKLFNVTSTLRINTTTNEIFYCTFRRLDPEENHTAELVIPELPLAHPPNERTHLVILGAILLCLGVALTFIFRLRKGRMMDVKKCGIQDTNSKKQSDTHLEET
Substance,Effect on PD-L1-mediated suppression of human T-cell activation (PD-L1 [1]),Effect on tumour growth (PD-L1 [2]),Tumours responding to nivolumab (metastatic melanoma [3]; <50% VAF tumours) [%],Tumours responding to nivolumab (metastatic melanoma [3]; >50% VAF tumours) [%],Complete responders categorised as >50% VAF (metastatic melanoma [3]; out of the 3 complete responders),Complete responses (metastatic melanoma [4]),Partial responses (metastatic melanoma [4])
MEDI4736: anti-PD-L1 antibody selective for PD-L1 that blocks binding of PD-L1 to PD-1 and CD80,relieve PD-L1-mediated suppression of human T-cell activation,inhibit tumour growth,–,–,–,–,–
nivolumab,–,–,17,40,2,3,12
